One block for each molecule: values may come before it.
Assays:
[1] = Antiproliferative activity against human TNBC cells assessed as reduction in cell viability; type: functional, cell-based; details: Breast carcinoma cell
MDA-MB-468 = assay: Antitumor activity against human MDA-MB-468 cells xenografted in nude mouse assessed as tumor growth inhibition at 20 mg/kg, po relative to control; type: functional; details: read-out: TGI
MDA-MB-231 = assay: Antiproliferative activity against human MDA-MB-231 cells assessed as reduction in cell viability measured after 72 hrs by AlamarBlue assay; type: functional, cell-based; details: MDA-MB-231, 72 h
HCT-116 = assay: Antiproliferative activity against human HCT-116 cells assessed as reduction in cell viability measured after 72 hrs by AlamarBlue assay; type: functional, cell-based; details: HCT-116, 72 h
U-87 MG = assay: Antiproliferative activity against human U-87 MG cells assessed as reduction in cell viability measured after 72 hrs by AlamarBlue assay; type: functional, cell-based, U-87MG ATCC
A2780 = assay: Antiproliferative activity against human A2780 cells assessed as reduction in cell viability measured after 72 hrs by AlamarBlue assay; type: functional, cell-based; details: A2780, 72 h
NCI-H1299 = assay: Antiproliferative activity against human NCI-H1299 cells assessed as reduction in cell viability measured after 72 hrs by AlamarBlue assay; type: functional, cell-based; details: NCI-H1299, 72 h
[2] = target: Serine/threonine-protein kinase PLK2 (Homo sapiens, UniProt Q9NYY3); assay: Inhibition of full length PLK2 (unknown origin)
Chain of Serine/threonine-protein kinase PLK2 (Q9NYY3 whole entry): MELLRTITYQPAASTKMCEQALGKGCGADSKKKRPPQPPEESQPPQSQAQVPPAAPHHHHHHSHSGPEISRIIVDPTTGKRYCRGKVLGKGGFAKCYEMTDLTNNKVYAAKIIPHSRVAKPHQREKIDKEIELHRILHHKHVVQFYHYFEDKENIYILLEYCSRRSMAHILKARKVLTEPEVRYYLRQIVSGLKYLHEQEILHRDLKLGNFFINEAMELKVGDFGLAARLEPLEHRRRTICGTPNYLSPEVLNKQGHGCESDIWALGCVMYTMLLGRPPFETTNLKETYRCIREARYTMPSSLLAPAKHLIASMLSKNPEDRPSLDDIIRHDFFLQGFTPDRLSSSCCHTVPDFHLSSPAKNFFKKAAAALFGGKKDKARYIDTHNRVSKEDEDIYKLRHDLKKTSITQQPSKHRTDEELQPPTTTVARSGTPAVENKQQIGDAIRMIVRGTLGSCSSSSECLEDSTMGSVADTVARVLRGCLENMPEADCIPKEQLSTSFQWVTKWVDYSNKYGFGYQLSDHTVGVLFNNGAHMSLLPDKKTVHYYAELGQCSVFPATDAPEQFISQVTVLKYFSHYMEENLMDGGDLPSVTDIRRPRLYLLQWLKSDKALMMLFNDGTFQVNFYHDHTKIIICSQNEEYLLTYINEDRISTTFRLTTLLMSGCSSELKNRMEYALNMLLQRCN

[3] = target: T1, Serine/threonine-protein kinase PLK4 (Homo sapiens, UniProt O00444); assay: Binding affinity to PLK4 (unknown origin) assessed as inhibition constant
T1 sequence (O00444 whole entry): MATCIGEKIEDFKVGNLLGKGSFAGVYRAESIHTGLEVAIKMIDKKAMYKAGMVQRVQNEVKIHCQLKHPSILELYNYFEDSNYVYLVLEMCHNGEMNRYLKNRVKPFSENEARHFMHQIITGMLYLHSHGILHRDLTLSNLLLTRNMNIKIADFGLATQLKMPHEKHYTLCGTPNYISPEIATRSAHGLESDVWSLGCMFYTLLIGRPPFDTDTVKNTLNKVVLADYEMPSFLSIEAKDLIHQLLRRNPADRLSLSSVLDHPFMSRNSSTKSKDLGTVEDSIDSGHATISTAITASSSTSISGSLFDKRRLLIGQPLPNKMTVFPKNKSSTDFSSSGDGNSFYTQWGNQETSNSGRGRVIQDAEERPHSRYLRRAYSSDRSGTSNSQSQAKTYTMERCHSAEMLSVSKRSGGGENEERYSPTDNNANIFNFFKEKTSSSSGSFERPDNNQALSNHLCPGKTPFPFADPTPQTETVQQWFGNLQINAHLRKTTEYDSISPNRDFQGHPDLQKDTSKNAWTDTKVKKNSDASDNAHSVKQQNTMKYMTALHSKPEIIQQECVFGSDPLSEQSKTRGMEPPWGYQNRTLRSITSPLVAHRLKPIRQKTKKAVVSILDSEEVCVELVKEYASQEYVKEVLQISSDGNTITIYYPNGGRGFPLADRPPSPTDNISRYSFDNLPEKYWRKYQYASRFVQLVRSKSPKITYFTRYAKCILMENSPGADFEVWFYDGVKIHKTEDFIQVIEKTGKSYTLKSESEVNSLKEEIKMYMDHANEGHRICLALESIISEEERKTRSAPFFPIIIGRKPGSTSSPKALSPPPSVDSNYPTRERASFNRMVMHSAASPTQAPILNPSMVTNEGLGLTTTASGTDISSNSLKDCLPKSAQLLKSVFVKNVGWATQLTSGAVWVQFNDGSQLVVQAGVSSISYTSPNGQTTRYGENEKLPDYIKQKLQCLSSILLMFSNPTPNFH

[4] = Selectivity ratio of Ki for PLK4 (unknown origin) to Ki for AURORA-A (unknown origin)
[5] = target: T1, Serine/threonine-protein kinase PLK4; assay: Inhibition of PLK4 (unknown origin)

Structure (SMILES): CC(=O)Nc1nccc(-c2ccc3c(/C=C/c4ccc(CN(C)C)cc4)n[nH]c3c2)n1
IC50 [1]: 60 nM | inhibition in vivo at 20 mg/kg (MDA-MB-468): 80%

Structure (SMILES): Cn1c2ccccc2c2c3c(c4c5ccccc5n(CCC#N)c4c21)CNC3=O [GO-6976]
IC50 [2]: > 19 µM

Structure (SMILES): COc1c(Nc2cc(C)[nH]n2)nc(Sc2ccc(S(=O)(=O)Cc3cccc([N+](=O)[O-])c3F)cc2F)nc1N1CCCCC1
Ratio Ki [4]: 2100

Structure (SMILES): CN(C)Cc1ccc(/C=C/c2n[nH]c3cc(-c4ccnc(N)n4)ccc23)cc1
IC50 [1]: 60 nM | inhibition in vivo at 20 mg/kg (MDA-MB-468): 80% | IC50 [5]: 11.2 nM

The remaining lines, values ahead:

IC50 (MDA-MB-231): 5 nM | IC50 (HCT-116): 5 nM | IC50 (U-87 MG): 5 nM | IC50 (A2780): 5 nM | IC50 (NCI-H1299): 5 nM
Structure (SMILES): COCCOc1ccc2cc1OCC(=O)N(C)CCCN(C)Cc1c[nH]c3ncnc(c13)N2

Ki [3]: 15 nM | Ratio Ki [4]: 15
Structure (SMILES): COc1c(Nc2cc(C)[nH]n2)nc(Sc2ccc(NC(=O)C3CC3)cc2)nc1N1CCN(C)CC1

IC50 [5]: 2100 nM
Structure (SMILES): c1ccc(CNc2nc(Nc3cccc(N4CCOCC4)c3)nc3[nH]ncc23)cc1

IC50 [5]: 27 nM
Structure (SMILES): CNC(=O)c1ccccc1Nc1nc(Nc2ccc(S(C)(=O)=O)cc2)nc2[nH]ncc12

Source: ChEMBL document CHEMBL5512608, “Therapeutic potential of targeting polo-like kinase 4” (Eur J Med Chem, 2024)
